In US20090312277A1, “Compositions And Methods For Reversing Or Preventing Resistance Of A Cancer Cell To A Cytotoxic Agent” (priority 2004, published 2009):
Peptide text beside a SMILES is read from it. * marks the point of attachment. Cbz = O=C(OCc1ccccc1)*

What was measured:
[1] = tested on: SKN-SH doxorubicin-resistant cells; assay: Viable cell count of SKN-SH doxorubicin-resistant cells with other chemotherapeutic agents; conditions: Homo sapiens, SK-N-SH, 72 h; for viability at 100 µM: read-out: number of viable cells, chemotherapeutic agent alone at 10^−4 M; for viability at 10 µM: read-out: number of viable cells, chemotherapeutic agent alone at 10^−5M; for viability at 1 µM: read-out: number of viable cells, chemotherapeutic agent alone at 10^−6 M; for viability at 0.1 µM: read-out: number of viable cells, chemotherapeutic agent alone at 10^−7M; for viability at 0.01 µM: read-out: number of viable cells, chemotherapeutic agent alone at 10^−8M
Protocol: SHN-SH cells were prepared in the manner described above. […] Viable cells were counted after 72 hours of incubation with the melphalan, etoposide, mitoxantrone, cyclophosphamide, and tamoxifen.

Purified cathepsin L = biological target: T1, Purified cathepsin L (Homo sapiens, UniProt P07711); assay: Cathepsin L activity, fluorogenic substrate (CV-Cathepsin L Detection Kit); assay type: biochemical; conditions: inhibitor 10 μM, 200 ng cathepsin L; positive control 4e+5 AU, negative control 0.75e+5 AU
T1 construct: purchased Biomol, Plymouth Meeting, Pa
Protocol: Cathepsin L activity was measured using a commercially available kit according to the manufacturer's procedure (CV-Cathepsin L Detection Kit; Biomol, Plymouth Meeting, Pa.). Purified cathepsin L (Biomol, Plymouth Meeting, Pa.) (200 ng) was incubated with each inhibitor (10 μM) in a 96 well plate for 15 min at room temperature in 100 μl of reaction buffer (100 mM sodium acetate pH 5, 1 mM EDTA (ethylenediaminetetraacetic acid), and 4 mM dithiothreitol). The protease inhibitors tested were: lactacystin and inhibitors of cathepsin L, B, S, and K. 100 μl of a fluorogenic substrate (CV-Cathepsin L Detection Kit; Biomol, Plymouth Meeting, Pa.) were added and incubated for an additional 30 min at room temperature. Fluorescence was measured in a plate reader (Victor Multilabel Counter, Perkin Elmer) at 380 nm excitation and […] emission wavelengths.

[2] = tested on: Doxorubicin resistant human neuroblastoma cells (SKN-SH/R); assay: Tumor growth of SKN-SH/R cells injected into nude mice; assay type: in vivo
Protocol: Doxorubicin resistant human neuroblastoma cells (SKN-SH/R) cells grown into 75 cm^2 flasks were harvested by trypsinization and centrifuged to remove trypsin. The pellet was then reconstituted in culture medium at 10^7 cell/ml. On day one, 100 μl (10^6 cells) were injected to the right flank of nude mice (5 per group) and after the tumor became palpable at day 11, mice were assigned to four groups: 1) controls (treated with the vehicle DMSO), 2) Dox. 1.5 mg/kg (treated with doxorubicin alone 1.5 mg/Kg), 3) iCL 30 mg/Kg (treated with cathepsin L inhibitor alone at 30 mg/Kg), and 4) Dox 1.5 mg/Kg+iCL 30 mg/Kg (treated with the combination of doxorubicin 1.5 mg/Kg and cathepsin L inhibitor 30 mg/Kg). Intraperetoneal injections were given on day 11, day 14, and day 17.

[3] = tested on: drug resistant osteosarcoma cells (Saos2-R); assay: Cell count of drug resistant osteosarcoma cells after siRNA or inhibitor and doxorubicin; assay type: cell-based
Description: (§1) The human cathepsin L siRNA was designed in our laboratory by studying a cDNA sequence of the human cathepsin L gene (SEQ ID NO: 2). We selected a segment defined by nucleotide numbers 91-111, sent that sequence to a contract laboratory (Dharmacon, Lafayette, Colo.), which synthesized an siRNA molecule based on the aforementioned segment. The segment of the human cathepsin L cDNA we used was: […] (91-111) (SEQ ID NO: 2). On the day before transfection, 3×10^5 drug resistant osteosarcoma cells (Saos2-R) were seeded in 6-well plates and grown in 2.5 ml of DMEM supplemented with 10% FBS. After 24 hours in culture, 25 μl of 20 μM stock solution of siRNA duplexes were transfected into cells with GeneSilencer™ SiRNA Transfection Reagent Kit (Gene Therapy Systems, Inc., San Diego, Calif.). Briefly, adherent cells were transfected in 6 well plates. Cells were about 70% confluent. In one tube, 5 μl of GeneSilencer™ was mixed with 25 μl of serum free medium. In a second tube, 25 μl of siRNA diluent was mixed with […] of serum free medium and 20 μl of siRNA (100 nM). After incubation of tubes 1 and 2, at room temperature for 5 min, they were mixed together into tube 3 and incubated for an additional 5 min. The content of tube 3 was added to the cells in the 6 well plates and incubated for 2 days before the addition of the drug. After 48 hours of incubation, doxorubicin (10^−5 M) was added and maintained in culture for an additional 48 hours before analysis. The cells were counted and protein lysates were used to detect cathepsin L expression by Western blot as described above.

cathepsin L = assay: Cathepsin L expression by Western blot in siRNA-transfected Saos2-R cells; assay type: cell-based, human
Description: as §1, with “The content of tube 3 was added to the cells in the 6 well plates and incubated for 2 days before the addition of the drug. After 48 hours of incubation, doxorubicin (10^−5 M) was added and maintained in culture for an additional 48 hours before analysis.” left out

SKN-SH wild type cells = assay: MTT cytotoxicity assay, SKN-SH wild type cells; assay type: cell-based; conditions: Homo sapiens, SK-N-SH, 96 h, read-out: IC50 of the cytotoxic agent alone
Protocol: (§2) Human neuroblastoma SKN-SH cells (ATCC Cat. No. HTB-11) were cultured in Dulbecco's Modified Eagles Medium (DMEM; Gibco, Grand Island, N.Y.) supplemented with 10% fetal bovine serum (FBS; Sigma-Aldrich, St. Louis, Mo.) at 37° C. in a 95% Air/5% CO2 atmosphere. Resistant cells to doxorubicin (SKN-SH/R) were selected by stepwise exposure to drug concentrations ranging from 10^−9 M through 10^−6 M over a time period of three months. The resulting cell line was subjected to treatment with the doxorubicin alone or in combination with: proteosome inhibitor (Lactacystin), cathepsin B inhibitor (L-3-trans-(Propylcarbamoyl)oxirane-2-carbonyl]-L-isoleucyl-L praline), cathespin L inhibitor (Z-Phe-Tyr(t-Bu)-diazomethylketone), cathespin K inhibitor (1,3-Bis(N-CBZ-Leu-NH)-2-propanonel,3 -Di(N-carbonbenzoyloxy-L-leucyl)amino acetone), or cathespin S inhibitor (Z-Phe-Leu-COCHO.H2O), (all available from Calbiochem-Novabiochem, San Diego) at 10 μM each to determine whether they affect cell response to doxorubicin.
(§3) Cytotoxic activity of doxorubicin and cysteine protease inhibitors were quantitatively determined by a calorimetric assay utilizing 3-(4,5-dimethyl-2-thiazolyl) 2,5-diphenyl tetrazolium bromide (MTT; Sigma-Aldrich, St. Louis, Mo.). […] The optical density of this solution was measured at 570 nm and the percentage of viable cells estimated by comparison with untreated control cells. […]

SKN-SH/R cells = assay: MTT cytotoxicity assay, doxorubicin-resistant neuroblastoma cells; assay type: cell-based; conditions: Homo sapiens, SK-N-SH, 96 h, read-out: IC50 (concentration at which 50% of cells remained viable) of the cytotoxic agent alone, SKN-SH/R cells, agent alone (control cells), 96 hours, MTT
Protocol: as §2, §3

[4] = tested on: Drug-sensitive cells Saos2; assay: Prevention of development of doxorubicin resistance, viable cell count, Saos2; assay type: cell-based; conditions: Dox 10^−9 M + inhibitor 10 μM
Description: (§4) As discussed above, inhibition of cathepsin L enhanced drug response only in drug-resistant cells. Another aspect of the present invention was to determine whether treatment of drug-sensitive cancer cells with this drug combination prevents them from becoming drug resistant. […] After 4 days in culture, the surviving cells were subjected to the same treatment for an additional four days. The cells were then subjected to two subsequent treatments for four days with 2.5×10^−8 M doxorubicin with or without the cathepsin L inhibitor at 10 μM. The surviving cells were then treated with doxorubicin 5×10^−8 M doxorubicin with or without cathepsin L (10 μM) for four days. At the end of each incubation period, viable cells were counted.

[5] = tested on: Drug-sensitive cells SKN-SH; assay: Prevention of development of doxorubicin resistance, viable cell count, SKN-SH; assay type: cell-based, human; conditions: Dox 10^−9 M + inhibitor 10 μM
Description: as §4

[6] = cathepsin inhibitor 30 mg/Kg + doxorubicin 1.5 mg/Kg

T1 sequence (P07711 114-333, species assumed): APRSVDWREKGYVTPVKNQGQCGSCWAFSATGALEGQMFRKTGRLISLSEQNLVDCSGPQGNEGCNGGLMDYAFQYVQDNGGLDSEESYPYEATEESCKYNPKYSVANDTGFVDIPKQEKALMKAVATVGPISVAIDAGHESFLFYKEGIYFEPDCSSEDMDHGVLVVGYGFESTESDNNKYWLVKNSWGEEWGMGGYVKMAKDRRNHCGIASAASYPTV

Molecule: COc1cc([C@@H]2c3cc4c(cc3[C@@H](O[C@@H]3O[C@@H]5CO[C@@H](C)O[C@H]5[C@H](O)[C@H]3O)[C@H]3COC(=O)[C@H]23)OCO4)cc(OC)c1O [etoposide]
- viability at 100 µM [1]: ~10%
- viability at 10 µM [1]: ~70%
- viability at 1 µM [1]: ~90%
- viability at 0.1 µM [1]: ~95%

Molecule: CC(C)C[C@H](NC(=O)OCc1ccccc1)C(=O)NCC(=O)CNC(=O)[C@H](CC(C)C)NC(=O)OCc1ccccc1 [cathepsin K inhibitor, 1,3-Bis(N-CBZ-Leu-NH)-2-propanonel,3 -Di(N-carbonbenzoyloxy-L-leucyl)amino acetone]
- cathepsin L activity (arbitrary units) in presence of inhibitor (Purified cathepsin L): 1e+5 AU

Molecule: CCCNC(=O)[C@H]1O[C@@H]1C(=O)N[C@H](C(=O)N1CCC[C@H]1C(=O)O)[C@@H](C)CC (relative stereo) [cathepsin B inhibitor]
- cathepsin L activity (arbitrary units) in presence of inhibitor (Purified cathepsin L): 3.5e+5 AU

Molecule: CC/C(=C(\c1ccccc1)c1ccc(OCCN(C)C)cc1)c1ccccc1 [tamoxifen]
- viability at 10 µM [1]: ~0%
- viability at 1 µM [1]: ~60%
- viability at 0.1 µM [1]: ~60%
- viability at 0.01 µM [1]: ~75%

Molecule: O=C1c2c(O)ccc(O)c2C(=O)c2c(NCCNCCO)ccc(NCCNCCO)c21 [mitoxantrone]
- viability at 1 µM [1]: ~5%
- viability at 0.1 µM [1]: ~10%
- viability at 0.01 µM [1]: ~40%

Molecule: O=C[C@H](Cc1ccc(O)cc1)NC(=O)[C@H](Cc1ccccc1)NC(=O)OCc1ccccc1 [iCL, Z-Phe-Tyr-aldehyde] (Cbz-Phe-Tyr-aldehyde)
- tumor volume reduction at day 27 greater than doxorubicin alone, co-administered with doxorubicin [2, 6]: about 94%
- tumor volume reduction at day 27 greater than the control, co-administered with doxorubicin [2, 6]: about 95%
- tumor volume reduction at day 27 greater than the control, inhibitor alone ([2]; cathepsin inhibitor alone 30 mg/Kg): about 60%
- tumor volume reduction at day 27 greater than doxorubicin, inhibitor alone ([2]; cathepsin inhibitor alone 30 mg/Kg vs doxorubicin 1.5 mg/Kg): about 50%
- average tumor volume on day 27, combination with doxorubicin ([2]; nude mice, i.p. on day 11, 14, 17, Dox 1.5 mg/Kg+iCL 30 mg/Kg): approximately 100 mm^3
- average tumor volume on day 27, single agent ([2]; nude mice, i.p. on day 11, 14, 17, doxorubicin alone 1.5 mg/Kg or iCL alone 30 mg/Kg): approximately 800 mm^3

Molecule: O=P1(N(CCCl)CCCl)NCCCO1 (stereo not shown) [cyclophosphamide]
- viability at 100 µM [1]: ~70%
- viability at 10 µM [1]: ~70%
- viability at 1 µM [1]: ~80%
- viability at 0.1 µM [1]: ~95%

Molecule: siRNA: human cathepsin L siRNA based on nucleotides 91-111 of the cathepsin L cDNA (SEQ ID NO: 2), synthesized by Dharmacon (UUCACCUUCCGCUACGUGUUG; listed as RNA, chemistry not given here; listed as Homo sapiens)
- inhibition of cell proliferation, combination of siRNA and doxorubicin ([3]; doxorubicin 10^−5 M): ~90%
- cell number, in combination with doxorubicin ([3]; doxorubicin 10^−5 M for 48 hours, untreated 1.6e+6 AU): 1.5e+5 AU
- cell number, siRNA transfection alone ([3]; untreated 1.6e+6 AU): 8.0e+5 AU
- cathepsin L expression (Western blot), siRNA alone (cathepsin L; Saos2-R cells transfected with siRNA): completely diminished
- cathepsin L expression (Western blot), siRNA and doxorubicin (cathepsin L; Saos2-R cells transfected with siRNA and treated with doxorubicin 10^−5 M): completely diminished

Molecule: CC[C@]1(O)C[C@@H]2CN(CCc3c([nH]c4ccccc34)[C@@](C(=O)OC)(c3cc4c(cc3OC)N(C)[C@H]3[C@@](O)(C(=O)OC)[C@H](OC(C)=O)[C@]5(CC)C=CCN6CC[C@]43[C@@H]65)C2)C1 [vinblastine]
- IC50 (SKN-SH wild type cells): ~100 nM
- IC50 (SKN-SH/R cells): ~5.62 µM

Molecule: CC[C@H](C)[C@H](NS(=O)(=O)c1ccc2ccccc2c1)C(=O)N[C@H](C=O)Cc1c[nH]c2ccccc12 [cathepsin L inhibitor (Napsule-Ile-Tryp), Napsule-Ile-Tryp]
- viable cells, doxorubicin plus cathepsin L inhibition, first concentration [4]: about 90%
- viable cells, doxorubicin plus cathepsin L inhibitor, first concentration [5]: about 80%

Molecule: CC(=O)N[C@@H](CSC(=O)[C@]1([C@@H](O)C(C)C)NC(=O)[C@H](C)[C@@H]1O)C(=O)O [lactacystin, Lactacystin]
- cathepsin L activity (arbitrary units) in presence of inhibitor (Purified cathepsin L): 4.25e+5 AU

Molecule: N[C@@H](Cc1ccc(N(CCCl)CCCl)cc1)C(=O)O [melphalan]
- viability at 1 µM [1]: ~0%
- viability at 0.1 µM [1]: ~30%
- viability at 0.01 µM [1]: ~60%

Molecule: CC(C)CC(NC(=O)C(Cc1ccccc1)NC(=O)OCc1ccccc1)C(=O)C=O.O (stereo not drawn) [cathepsin S inhibitor, Z-Phe-Leu-COCHO.H2O]
- cathepsin L activity (arbitrary units) in presence of inhibitor (Purified cathepsin L): 3e+5 AU
